Data on 23 molecules can be found in ChEMBL document CHEMBL1126767, “Three-dimensional quantitative structure-activity relationship of angiotesin-converting enzyme and thermolysin inhibitors. II. A comparison of CoMFA models incorporating molecular orbital fields and desolvation free energies based on active-analog and complementary-receptor-field alignment rules” (J Med Chem, 1993).

Broadly, the IC50 is the concentration that gives 50% inhibition.

Structures are written as SMILES. Square brackets hold non-standard residues; d marks the D form. Peptide text beside a SMILES is read from it. ξ: configuration not given here. ξC = NC(CS)C(=O)O

The first assay concerns the target T1, Angiotensin-converting enzyme (Rattus norvegicus, UniProt P47820).
T1 sequence (P47820 whole entry): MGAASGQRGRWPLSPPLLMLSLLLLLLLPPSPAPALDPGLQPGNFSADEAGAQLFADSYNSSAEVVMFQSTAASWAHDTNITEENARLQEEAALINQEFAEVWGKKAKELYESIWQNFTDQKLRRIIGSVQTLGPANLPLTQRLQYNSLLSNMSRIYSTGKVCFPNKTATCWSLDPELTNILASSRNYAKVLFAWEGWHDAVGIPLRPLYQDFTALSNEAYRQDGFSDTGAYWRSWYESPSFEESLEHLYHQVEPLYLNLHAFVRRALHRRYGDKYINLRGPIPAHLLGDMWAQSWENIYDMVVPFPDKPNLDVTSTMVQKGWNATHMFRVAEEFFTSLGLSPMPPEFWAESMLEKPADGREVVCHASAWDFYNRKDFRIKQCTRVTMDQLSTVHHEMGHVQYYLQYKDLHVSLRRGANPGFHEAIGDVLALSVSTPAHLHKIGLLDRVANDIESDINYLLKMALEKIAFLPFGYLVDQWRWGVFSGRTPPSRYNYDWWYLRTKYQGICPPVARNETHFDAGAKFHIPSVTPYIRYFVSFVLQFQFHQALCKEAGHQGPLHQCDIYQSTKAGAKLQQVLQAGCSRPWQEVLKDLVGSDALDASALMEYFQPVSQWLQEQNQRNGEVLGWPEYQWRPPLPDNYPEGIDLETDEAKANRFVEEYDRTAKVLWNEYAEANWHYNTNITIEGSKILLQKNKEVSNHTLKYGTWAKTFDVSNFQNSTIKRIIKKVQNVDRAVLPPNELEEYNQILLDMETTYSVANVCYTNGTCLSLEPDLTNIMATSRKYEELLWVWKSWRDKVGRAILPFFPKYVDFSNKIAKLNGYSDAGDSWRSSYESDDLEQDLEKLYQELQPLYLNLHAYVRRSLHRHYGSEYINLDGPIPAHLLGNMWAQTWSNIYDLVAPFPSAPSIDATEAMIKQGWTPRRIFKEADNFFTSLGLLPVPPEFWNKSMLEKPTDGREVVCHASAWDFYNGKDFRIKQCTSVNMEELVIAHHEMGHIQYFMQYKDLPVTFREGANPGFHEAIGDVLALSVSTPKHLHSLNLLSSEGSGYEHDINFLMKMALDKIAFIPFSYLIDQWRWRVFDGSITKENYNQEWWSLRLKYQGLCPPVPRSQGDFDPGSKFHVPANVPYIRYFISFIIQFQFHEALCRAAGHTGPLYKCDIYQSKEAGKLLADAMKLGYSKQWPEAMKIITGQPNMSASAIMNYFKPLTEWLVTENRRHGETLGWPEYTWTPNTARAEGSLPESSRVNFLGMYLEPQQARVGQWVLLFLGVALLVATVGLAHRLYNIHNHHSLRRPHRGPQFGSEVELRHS
Nature of the assay: Inhibitory activity against angiotensin converting enzyme (ACE); Activity is for a diastereomeric or racemic mixture. The format is functional.
As to `C[C@H](NC(C(=O)O)C(Cc1ccccc1)NC(=O)c1ccccc1)C(=O)N1CCC[C@H]1C(=O)O` (stereo partly drawn), the 50% inhibitory concentration (IC50) was 0.00776 µM.

The target in another assay is Angiotensin-converting enzyme (Homo sapiens, UniProt P12821). Nature of the assay: Inhibitory activity against angiotensin converting enzyme (ACE). Format: functional.
Consider `O=C(NC(Cc1ccccc1)C(=O)N[C@H](CCC(=O)N1c2ccccc2C[C@H]1C(=O)O)C(=O)O)OCc1ccccc1` (stereo partly drawn), for which the midpoint of inhibition, the IC50, lay at 0.000251 µM.
`CC[C@H](C)[C@H](N)C(=O)N1CCC[C@H]1C(=O)O` (H-Ile-Pro-OH) showed an IC50 of 129 µM.
In turn, `NCCCC[C@H](OP(=O)(O)CCCCc1ccccc1)C(=O)N1C[C@H](O)C[C@H]1C(=O)O` had an IC50 of 0.000871 µM.
In the case of `O=C(O)CNC(=O)CCS`, inhibition was half-maximal at 2.82 µM (IC50).
The molecule `O=C(O)CCC(=O)CCS` had an IC50 of 2.4 µM.
In turn, `NCCCC[C@H](OP(=O)(O)CCCCc1ccccc1)C(=O)N1C[C@H](C2CCCCC2)C[C@H]1C(=O)O` had an IC50 of 0.00324 µM.
Molecule `NCCCC[C@H](OP(=O)(O)CCCCc1ccccc1)C(=O)N1C[C@H](c2ccccc2)C[C@H]1C(=O)O` had an IC50 of 0.339 µM.
In turn, `NCCCC[C@H](OP(=O)(O)CCCCc1ccccc1)C(=O)N1c2ccccc2C[C@H]1C(=O)O` gave a half-inhibitory concentration (IC50) of 0.000295 µM.
In turn, `NCCCC[C@H](OP(=O)(O)CCCCc1ccccc1)C(=O)N(CC(=O)O)c1ccc2c(c1)OCO2` showed an IC50 of 0.000115 µM.
Consider `C[C@@H]1CCCC(NC(CCc2ccccc2)C(=O)O)C(=O)N1CC(=O)O` (stereo partly drawn), for which half-maximal inhibition (IC50) required 0.00302 µM.
Molecule `NCCCC[C@H](OP(=O)(O)CCCCc1ccccc1)C(=O)N1C[C@@H](c2ccccc2)C[C@H]1C(=O)O` gave a half-inhibitory concentration (IC50) of 0.000132 µM.
With `CSC1(SC)C[C@@H](C(=O)O)N(C(=O)[C@H](CCCCN)OP(=O)(O)CCCCc2ccccc2)C1`, 0.00257 µM corresponded to half-maximal inhibition (IC50).
Same read-out and setting: the figure for `NC(CS)C(=O)N1CCC[C@H]1C(=O)O` (stereo partly drawn) (H-[ξC]-Pro-OH) is 0.0631 µM; for `O=C(O)CCCCCS` it is 1100 µM.
The same measure, in the same setting: then `C[C@H](NC(=O)CCC(=O)O)C(=O)O`, with 1350 µM.
On to `O=C(O)CCn1c(=O)n2n(c1=O)[C@H](C(=O)O)C=CC2`, for which half-maximal inhibition (IC50) required 0.001 µM.
As for `O=C(O)[C@@H]1CCCN1CCCS`, the IC50 is 240 µM.
For the molecule `CS[C@@H]1C[C@@H](C(=O)O)N(C(=O)[C@H](CCCCN)OP(=O)(O)CCCCc2ccccc2)C1`, the IC50 is 0.000525 µM.
`CC[C@@H](C)[C@H](C)C(=O)N[C@@H](Cc1ccccc1)C(=O)O` showed an IC50 of 933 µM.
On to `NCCCC[C@H](OP(=O)(O)CCCCc1ccccc1)C(=O)N(CC(=O)O)C1CCCCC1`, for which the IC50 is 0.000295 µM.
Molecule `O=C(CS)N[C@@H](Cc1c[nH]c2ccccc12)C(=O)O` gave an IC50 of 0.759 µM.
In turn, `C[C@H](NC(C(=O)O)C1CCCN1C(=O)c1ccccc1)C(=O)N1CCC[C@H]1C(=O)O` (stereo partly drawn) showed a half-inhibitory concentration (IC50) of 0.00288 µM.
